Measurements reported in patent US11685741B2, “Fluorescent probes” (University of Massachusetts, priority 2017, dated 2023).

Columns and labels:
Caco-2 cells = assay: Imaging labile iron pools in hepcidin-stimulated Caco-2 cells; assay type: cell-based, human
Protocol: For kinetic experiment, Caco-2 cells (ATCC) were maintained in Dulbecco's minimal essential medium (DMEM, ATCC) supplemented with 10% fetal bovine serum (FBS, ATCC), 100 U/ml penicillin G, and 100 μg/ml streptomycin at 37° C. in a humid atmosphere of 5% CO2 atmosphere. The culture medium was replaced with a fresh medium every 2-3 days. After being nearly confluent, the cells were used for experiment.
The ability of NIRh-Fret to monitor the changes in cellular labile Fe^2+ stores triggered by hepcidin stimulation, a key iron regulatory hormone produced by the liver which controls iron homeostasis was studied (C. H. Park, et al., J. Biol. Chem., 2001, 276, 7806; G. Nicolas, et al, Blood Cells Mol. Dis., 2002, 29, 327; and T. Ganz, Blood, 2003, 102, 783). […] For Fe^2+ replete conditions, live Caco-2 cells were incubated with 100 μM of ferrous ammonium sulfate (Fe (NH4)2(SO4)2) at 37° C. for 6 h followed by washing with DMEM medium to remove excess Fe^2+ and then 10 μM of NIRh-Fret was added to the culture media and was incubated at 37° C. for 30 min. For hepcidin stimulated condition, Cells was treated first with 100 μM of ferrous ammonium sulfate (Fe (NH4)2(SO4)2) for 1 h, followed by addition of 0.5 μM hepcidin and then incubated for another 5 h.

zebrafish = assay: Zebrafish confocal imaging of free Fe2+; assay type: in vivo
Protocol: Embryos were collected from natural spawning and raised up in embryo medium (M. Santra, et al. Chem. Commun., 2009, 10, 2115). Zebrafish mutant strain Casper was utilized because it lacks pigment, allowing better visualization (J. A. Lister, et al., Development, 1999, 126, 3757). Zebrafish embryos at 6 days post fertilization (dpf) were incubated with 10 μM NIRh-Fret in embryo media for 1 h at 28° C. In addition, iron (II) loaded zebrafish (100 μM Fe (NH4)2(SO4)2 for 8 hours incubation) were incubated with 10 μM NIRh-Fret in embryo media for 1 h at 28° C. The treated zebrafish were imaged by a LSM710 confocal microscope.
The ability of NIRh-Fret to detect free Fe^2+ in zebrafish was further investigated using confocal microscopy. […] For Fe^2+ replete conditions, live zebrafish were incubated with 100 μM of ferrous ammonium sulfate (Fe (NH4)2(SO4)2) at 28° C. for 8 h followed by washing with E3 medium to remove excess Fe^2+ and then 10 μM of NIRh-Fret was added to the culture media and was incubated at 28° C. for 30 min.
In addition, the red-colored region was observed as a well-localized red round spot, being the intestine region of the 6-days-old zebrafish.

[1] = test system: human fibroblast cells (ws1); assay: Confocal imaging of Fe3+ with Rh-PK in ws1 cells; assay type: cell-based
Protocol: Human SH-SY5Y neuroblastoma cells and primary fibroblast ws1 cells were obtained from ATCC (American Type Culture Collection). Cells were maintained in a 1:1 mixture of Eagle's Minimal Essential medium (ATCC) and Ham's F12 medium (ATCC) supplemented with 10% fetal bovine serum (FBS, ATCC) without antibiotics and incubated at 37° C. in a humidified 5% CO2 atmosphere. The cells were routinely sub-cultured using 0.05% trypsin-EDTA solution (ATCC). The cells were seeded onto 2-chamber slides for 48 h at 5×10^4 cells/chamber and grown until each chamber was 20-30% confluent. A stock solution of Rh-PK ([…] in […]) was diluted to a concentration of […] in culture medium without FBS. […] The fluorescence responses of the sensor in living cells were measured under a Zeiss LSM 710 laser scanning confocal microscope. […] The REUSE function controlled by Zeiss software was applied to guarantee that all spectra were recorded under the same instrumental conditions.
The ability of Rh-PK to track Fe^3+ in live human fibroblast cells (ws1) was tested via a laser scanning confocal microscope (Zeiss LSM 710). […] Turn on fluorescence was observed, which is likely being triggered by endogenous labile Fe^3+. […]
FIG. 17A to FIG. 17C show the distribution of exchangeable Fe^3+ pools in live fibroblast cells (ws1). […] FIG. 17A is the Rh-PK-Fe3+ fluorescence intensity collected at 547-703 nm (red). […]

Structure (SMILES) | fluorescence of cells with sensor only (Caco-2 cells; 10 μM NIRh-Fret) | fluorescence of hepcidin-treated, iron supplemented cells versus Fe^2+ supplementation only (Caco-2 cells; 100 μM ferrous ammonium sulfate 1 h, then 0.5 μM hepcidin 5 h) | fluorescence after Fe^2+, hepcidin and Bpy (Caco-2 cells; 40 min 1 mM Bpy, versus Fe^2+ supplementation only) | fluorescence of Fe^2+-treated zebrafish versus unsupplemented (zebrafish; 100 μM ferrous ammonium sulfate 8 h, then 10 μM NIRh-Fret 30 min) | fluorescence of zebrafish with sensor only (zebrafish; 6-days-old zebrafish, 10 μM NIRh-Fret) | fluorescence of Fe^3+-loaded cells versus before loading ([1]; 10 μM Rh-PK, cells loaded with 50 μM Fe^3+) | fluorescence response after Fe^3+ pre-depletion ([1]; SIH 100 μM overnight, then Rh-PK)
CCN(CC)c1ccc2c(c1)OC1=C(CCC/C1=C\C=C1\N(C)c3ccccc3C1(C)C)C21c2ccccc2C(=O)N1/N=C\C=C\c1ccc(N(C)C)cc1 (stereo not shown) [NIRh-Fret, (E)-6′-(diethylamino)-2-(((1Z,2E)-3-(4-(dimethylamino)phenyl)allylidene)amino)-4′-(2-((E)-1,3,3-trimethylindolin-2-ylidene)ethylidene)-1′,2′,3′,4′-tetrahydrospiro[isoindoline-1,9′-xanthen]-3-one] | weak fluorescence | significant increase in fluorescent signals | decrease in fluorescence signal | significant increase in fluorescent signals | weak fluorescence |  | 
CCN(CC)c1ccc2c(c1)Oc1cc(N(CC)CC)ccc1C21c2ccccc2C(=O)N1CC/N=C(\C)c1cccc(C(C)=O)n1 [Rh-PK, (E)-2-(2-((1-(6-acetylpyridin-2-yl)ethylidene)amino)ethyl)-3′,6′-bis(diethylamino)spiro[isoindoline-1,9′-xanthen]-3-one] |  |  |  |  |  | brighter and more widely distributed fluorescence signals | weaker fluorescence response
